Reference: patent publication US20130109720A1, “INDOLE INHIBITORS OF CRAC” (Hoffmann-La Roche Inc., priority 2011, published 2013)
pIC50: −log10 of the molar value.

Test system: IL-2 production in Jurkat cell
Assay: Jurkat IL-2 Production Assay
Assay type: cell-based
Conditions: Homo sapiens, Jurkat cell (ATCC), PHA stimulation with 1% FBS or PMA/Ionomycin with 30% FBS (which one not stated), 18-20 h incubation
Procedure: Cell: Jurkat cell (ATCC) was grown in RPMI 1640 with 10% FBS and 1% penicillin/streptomycin. The cell density was kept at 1.2˜1.8×10^6/mL in culture flask before seeding into culture plate, and the cell density in the plate was 0.5×10^6/200 μL/well.
Culture media: RPMI 1640 with 1% FBS or 30% FBS for high serum assay.
Test compound: serial dilution was done in 100% DMSO, and intermediate dilution was done with RPMI 1640 medium with 1% FBS. The DMSO final concentration in culture well was 0.25%.
Stimulant: PHA (Sigma#L9017-10MG) was used for the assay with 1% FBS in culture medium, and added after 10 minutes exposure of cell to compound/DMSO. The […] final concentration in culture well was 5 μg/mL. PMA (Sigma# P-8139 5MG)/Ionomycin (Sigma# I0634-5MG) was used for the assay with 30% FBS in culture medium, and added at same time point as the 1% FBS culture assay. The final concentration of PMA was 50 ng/mL, and Ionomycin final concentration was 500 ng/mL.
Incubation: at 37° C. with 5% CO2 and 95% humidity for 18 h ˜20 h.
IC50: IC50 was calculated with the data analysis software XLfit4, General Pharmacology model 251.

- pIC50: 7.54
Compound: Cc1cc(S(C)(=O)=O)ncc1-c1ccc2[nH]c(-c3cncc(F)c3C)cc2c1 [Example 1, 2-(5-fluoro-4-methyl-pyridin-3-yl)-5-(6-methanesulfonyl-4-methyl-pyridin-3-yl)-1H-indole]
